What all share (assay type): functional
Assay [1] in a line: Antioxidant activity assessed as reduction of Fe3+ to Fe2+ after 20 min by spectrophotometeric analysis.
A short description of assay [2]: Antioxidant activity assessed as iron chelating activity after 10 min by spectrophotometeric analysis.
For assay [3], the system named is Radical scavenging activity. Kind of assay: Antioxidant activity assessed as DPPH free radical scavenging activity after 30 min by spectrophotometeric analysis.
Assay [4] can be described thus: Antioxidant activity assessed as H2O2 scavenging activity after 10 min by spectrophotometeric analysis.

Each structure is given as a SMILES string. ≈ marks a conversion by molar mass, not a printed value.

One may read the IC50 as the concentration needed to halve the response being measured. In the case of `COc1ccc(/C=C2\Oc3ccc(O)cc3C2=O)cc1OC` [5-HYDROXY-3',4'-DIMETHOXY AURONE], the IC50 in assay [1] amounted to 151.43 µg/mL (≈ 508 µM); in assay [2], 185.05 µg/mL (≈ 620 µM); in assay [3], 222.19 µg/mL (≈ 745 µM); in assay [4], 206.57 µg/mL (≈ 693 µM). In addition, the Activity result in assay [3] and in assay [4] was “Dose-dependent effect” throughout.

As to `CN(C)c1ccc(/C=C2\Oc3cc(O)ccc3C2=O)cc1`, the IC50 amounted to 70.1 µg/mL (≈ 249 µM) in assay [1], 179.33 µg/mL (≈ 637 µM) in assay [2], 109.92 µg/mL (≈ 391 µM) in assay [3] and 193.91 µg/mL (≈ 689 µM) in assay [4]. Besides, the Activity entry in assay [3] and in assay [4] was “Dose-dependent effect” throughout.

On to `COc1ccc(/C=C2\Oc3cc(O)ccc3C2=O)cc1OC`, for which the IC50 in assay [1] turned out to be 168.23 µg/mL (≈ 564 µM); in assay [2] it was 213.83 µg/mL (≈ 717 µM); in assay [3] it was 173.29 µg/mL (≈ 581 µM); in assay [4], 248.16 µg/mL (≈ 832 µM). Besides, the Activity result in assay [3] and in assay [4] was “Dose-dependent effect” each time.

Take `CN(C)c1ccc(/C=C/C(=O)c2cc(O)ccc2O)cc1`: the concentration for half-maximal inhibition (IC50) is 47.79 µg/mL (≈ 169 µM) in assay [1], 90.81 µg/mL (≈ 321 µM) in assay [2], 24.32 µg/mL (≈ 85.8 µM) in assay [3] and 153.85 µg/mL (≈ 543 µM) in assay [4]. The Activity result in assay [3] and in assay [4] was “Dose-dependent effect” throughout.

Consider `O=C1O[C@H]([C@@H](O)CO)C(O)=C1O` [ASCORBIC ACID], for which the IC50 in assay [1] was 53.24 µg/mL (≈ 302 µM); in assay [2] it was 126.12 µg/mL (≈ 716 µM); in assay [3], 98.77 µg/mL (≈ 561 µM); in assay [4] it was 445.92 µg/mL (≈ 2530 µM).

In the case of `COc1ccc(/C=C/C(=O)c2cc(O)ccc2O)cc1OC`, the 50% inhibitory concentration (IC50) turned out to be 111.79 µg/mL (≈ 372 µM) in assay [1], 159.22 µg/mL (≈ 530 µM) in assay [2], 132.22 µg/mL (≈ 440 µM) in assay [3] and 89.59 µg/mL (≈ 298 µM) in assay [4]. Also, the Activity entry in assay [3] and in assay [4] was “Dose-dependent effect” in each case.

On to `CN(C)c1ccc(/C=C/C(=O)c2ccc(O)cc2O)cc1`, for which the half-maximal inhibitory concentration (IC50) in assay [1] was found to be 53.6 µg/mL (≈ 189 µM); in assay [2], 140.16 µg/mL (≈ 495 µM); in assay [3], 65.8 µg/mL (≈ 232 µM); in assay [4] it was 135.88 µg/mL (≈ 480 µM). Also, the Activity result in assay [3] and in assay [4] was “Dose-dependent effect” throughout.

In the case of `O=C(/C=C/c1ccc(Cl)cc1)c1ccc(O)cc1O`, the IC50 in assay [1] stood at 155.87 µg/mL (≈ 567 µM); in assay [2], 159.97 µg/mL (≈ 582 µM); in assay [3], 264.95 µg/mL (≈ 964 µM); in assay [4], 129.02 µg/mL (≈ 470 µM). In addition, the Activity entry in assay [3] and in assay [4] was “Dose-dependent effect” each time.

With `O=C1/C(=C/c2ccc(Cl)cc2)Oc2cc(O)ccc21` [6-HYDROXY-4'-CHLORO AURONE], the IC50 in assay [1] is 188.31 µg/mL (≈ 691 µM); in assay [2], 179.18 µg/mL (≈ 657 µM); in assay [3], 266.12 µg/mL (≈ 976 µM); in assay [4] it was 178.13 µg/mL (≈ 653 µM). For the same compound, the Activity result in assay [3] and in assay [4] was “Dose-dependent effect” in each case.

For `COc1ccc(/C=C/C(=O)c2ccc(O)cc2O)cc1OC`, the IC50 in assay [1] is 134.45 µg/mL (≈ 448 µM); in assay [2], 166.73 µg/mL (≈ 555 µM); in assay [3], 35.2 µg/mL (≈ 117 µM); in assay [4], 70.1 µg/mL (≈ 233 µM). The Activity entry in assay [3] and in assay [4] was “Dose-dependent effect” throughout.

Regarding `CN(C)c1ccc(/C=C2\Oc3ccc(O)cc3C2=O)cc1`, the half-maximal inhibitory concentration (IC50) in assay [1] was 64.16 µg/mL (≈ 228 µM); in assay [2] it was 149.98 µg/mL (≈ 533 µM); in assay [3] it was 243 µg/mL (≈ 864 µM); in assay [4], 174.07 µg/mL (≈ 619 µM). Moreover, the Activity entry in assay [3] and in assay [4] was “Dose-dependent effect” in each case.
